According to patent publication US10729759B2, “Fluorocarbon-linked peptide formulation” (priority 2010, dated 2020):
“Also recorded” adds a separate entry of the source. Like-named read-outs stand apart in the source and are kept apart here. Residues, ends and D or L forms follow the SMILES beside them. *: point of attachment. Propanoyl(3-C8F17) = O=C(CCC(F)(F)C(F)(F)C(F)(F)C(F)(F)C(F)(F)C(F)(F)C(F)(F)C(F)(F)F)*

What was measured:
[1] = format: physicochemical; details: for Further dilution in Mannitol:Water Solubility: FCP 0.167 mM, 1.33% (w/v) mannitol, cloudiness / particulates; for Dispersion in Water Solubility: FCP 1.333 mM in water, vortexed and sonicated, cloudiness (Clear/Cloudy−/Cloudy/Cloudy+) / particulates
Description: The solubility of each FCP in water was assessed. Each FCP was dispersed in 300 μl of water to a final concentration of 1.333 mM and vortexed and sonicated. The typical dispersion conditions were four sequences of three minutes bath sonication interspersed by 30 seconds vortexing. After inspection, the resulting solution was diluted with a mannitol solution (a candidate lyophilisation medium, final concentration of peptide 0.167 mM, 1.33% (w/v) mannitol). Solubility was assessed by visual observation of the cloudiness of the resulting dispersion (scaled: Clear/Cloudy−/Cloudy/Cloudy+) and presence of particulates. […]

[2] = format: physicochemical; details: 1.33% mannitol, 0.22 μm PVDF filter
[3] = format: physicochemical; details: for Percentage acetic acid (% v/v): minimum concentration for acceptable dispersibility and solubility: FCP 2 μmol/ml after acetic acid dispersion; for Visual appearance after dispersion: at the listed acetic acid concentration, FCP 2 μmol/ml; for Physical stability of formulation at less than 80% (v/v) acetic acid: gel or soluble particulates formed over time
Description: In order to limit the concentration of acetic acid downstream in the formulation process and in the final product, the lowest concentration of acetic acid in water to achieve efficient dispersion and maintain visible solubility was determined for each fluorocarbon-linked peptide. When using mannitol as a cryprotectant, it is important to minimize the acetic acid concentration at the lyophilisation stage in order to achieve a stable and amorphous freeze-dried product. The minimum acetic acid concentration to achieve acceptable dispersibility and solubility of the individual fluorocarbon-linked peptides was determined. The final concentration of fluorocarbon-linked peptide after initial acetic acid dispersion was 2 μmol/ml and after dilution with mannitol, 0.250 μmol/ml.

[4] = for Ease of solubility, Cycle 1 Vortexing: 10 mg net/ml in 10% (FCP1, 2, 4, 5) or 80% (FCP9, 8) acetic acid; for Visual appearance after dispersion: 10 mg net/ml in AcOH 10% or 80%
[5] = 10 mg net/ml in 10% or 80% acetic acid

Row | SMILES | Further dilution in Mannitol:Water Solubility [1] | Dispersion in Water Solubility [1] | YIELD % of each FCP following sterile filtration, MIX 2 ([2]; MIX 2 dispersed in water) | Percentage acetic acid (% v/v): minimum concentration for acceptable dispersibility and solubility [3] | Visual appearance after dispersion [3] | Physical stability of formulation at less than 80% (v/v) acetic acid [3] | Ease of solubility, Cycle 1 Vortexing [4] | Ease of solubility, Cycle 1 Sonication [4, 5] | Ease of solubility, Cycle 2 Vortexing [4, 5] | Ease of solubility, Cycle 3 Sonication [4, 5] | Visual appearance after dispersion [4] | YIELD % of each FCP following sterile filtration, MIX 1 ([2]; MIX 1 dispersed in water) | Ease of solubility, Cycle 2 Sonication [4, 5] | Ease of solubility, Cycle 3 Vortexing [4, 5]
1 | CC[C@H](C)[C@H](NC(=O)[C@H](Cc1ccc(O)cc1)NC(=O)[C@@H](NC(=O)[C@H](CO)NC(=O)[C@H](CO)NC(=O)[C@@H](NC(=O)CNC(=O)CNC(=O)[C@H](C)NC(=O)[C@@H](NC(=O)[C@@H]1CCCN1C(=O)[C@H](CC(C)C)NC(=O)[C@H](Cc1ccccc1)NC(=O)[C@H](CCCNC(=N)N)NC(=O)[C@@H](NC(=O)[C@H](CCCCN)NC(=O)[C@H](CCCNC(=N)N)NC(=O)[C@@H](NC(=O)[C@H](CC(C)C)NC(=O)[C@H](CCC(=O)O)NC(=O)[C@H](CCCNC(=N)N)NC(=O)[C@H](CCC(=O)O)NC(=O)[C@H](CC(C)C)NC(=O)[C@H](CCSC)NC(=O)[C@H](Cc1ccc(O)cc1)NC(=O)[C@H](C)NC(=O)[C@@H](NC(=O)[C@@H](N)CCCCNC(=O)CCC(F)(F)C(F)(F)C(F)(F)C(F)(F)C(F)(F)C(F)(F)C(F)(F)C(F)(F)F)C(C)C)C(C)C)[C@@H](C)O)C(C)C)[C@@H](C)O)C(C)C)C(=O)N[C@@H](CCC(=O)O)C(=O)N[C@H](C(=O)N[C@@H](CC(C)C)C(=O)N[C@@H](Cc1c[nH]cn1)C(=O)N[C@@H](CC(C)C)C(=O)N[C@H](C(=O)N[C@@H](CCC(N)=O)C(=O)NCC(N)=O)[C@@H](C)O)C(C)C [FCP8] (H-K(Propanoyl(3-C8F17))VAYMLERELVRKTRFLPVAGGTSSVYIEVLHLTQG-NH2) | insoluble; also recorded: Cloudy/Particulates | Cloudy/Particulates | 25.3% | 80 % v/v | Clear | physically unstable over time | Particulates+ | Some | Some | Clear | Clear |  |  | 
2 | CC[C@H](C)[C@H](NC(=O)[C@H](CO)NC(=O)[C@H](CC(C)C)NC(=O)[C@@H](NC(=O)[C@H](CC(N)=O)NC(=O)[C@H](CCCNC(=N)N)NC(=O)[C@H](Cc1ccccc1)NC(=O)[C@H](Cc1c[nH]c2ccccc12)NC(=O)[C@H](CCC(=O)O)NC(=O)[C@@H]1CCCN1C(=O)[C@H](CCC(N)=O)NC(=O)[C@H](CC(N)=O)NC(=O)[C@H](CCCNC(=N)N)NC(=O)[C@@H](NC(=O)[C@@H](NC(=O)[C@H](Cc1ccc(O)cc1)NC(=O)[C@@H](N)CCCCNC(=O)CCC(F)(F)C(F)(F)C(F)(F)C(F)(F)C(F)(F)C(F)(F)C(F)(F)C(F)(F)F)[C@@H](C)CC)[C@@H](C)O)C(C)C)C(=O)N[C@@H](C)C(=O)N1CCC[C@H]1C(=O)N[C@H](C(=O)N[C@@H](CCSC)C(=O)N[C@@H](Cc1ccccc1)C(=O)N[C@@H](CO)C(=O)N[C@@H](CC(N)=O)C(=O)N[C@@H](CCCCN)C(=O)N[C@@H](CCSC)C(=O)N[C@@H](C)C(=O)N[C@@H](CCCNC(=N)N)C(=O)N[C@@H](CC(C)C)C(=O)NCC(=O)N[C@@H](CCCCN)C(=O)NCC(=O)N[C@@H](Cc1ccc(O)cc1)C(=O)N[C@@H](CCSC)C(=O)N[C@@H](Cc1ccccc1)C(=O)N[C@@H](CCC(=O)O)C(N)=O)[C@@H](C)CC [FCP9] | partially soluble; also recorded: Clear/Particulates | Cloudy−/Particulates |  | 80 % v/v | Clear | physically unstable over time | Particulates− | Clear | Clear | Clear | Clear | 22.9% | Clear | Clear
